Where two headings read alike, the source gives them in different places.
What was measured:
[1] = system: Airway basal cells (ABC) from IPF patients; experiment: Organoid formation assay; type: cell-based, human; conditions: for organoid formation of airway basal cells (FIGS. 4, 5 and 6): saracatinib 8, 25, 75, 210 or 600 nM, pirfenidone 1 mM, nintedanib 1 μM
Procedure: Airway Basal Cells (ABCs) either derived from IPF patients or Healthy Volunteers (HV) were cultured in Matrigel® (Corning in a transwell system with or without lung fibroblasts either derived from patients with IPF or normal lung for up-to 35 days in the incubator (5% CO2, 37° C.)).

[2] = IPF patients; cited from earlier work
[3] = cited from earlier work
[4] = system: TGFβ-stimulated NHLF (normal human lung fibroblasts); experiment: cells; type: cell-based; conditions: for IC50: Homo sapiens, Fibroblast; for cell viability / cell death / inhibition of αSMA (FIG. 2): TGF-beta1-stimulated human lung fibroblasts
Procedure: Normal human lung fibroblasts from a healthy donor (passage 5) were seeded in 96-well culture plates with 50,000 cells per cm^2 in DMEM culture medium with 10% FBS and 1% penicillin-streptomycin. […]. The cells were incubated for one hour before 0.123 ng/ml TGF-beta1 was added on top of the compound/vehicle treatment and the cells were incubated for 24 hours.
After 24 hours the medium was collected and analysed for IL-6 and the cells were either lysed for RNA isolation, DNA-synthesis and TaqMan quantitative PCR or fixated and stained for alpha-smooth muscle actin (αSMA) and with Hoechst nuclear staining. The percentage of cells staining positive for αSMA and thereby displaying the myofibroblast phenotype was determined using high content image analysis. The Ct-values from the quantitative PCR were normalised against the geomean Ct values of two reference-genes and presented as fold-expression over those reference genes (2^-delta Ct).

[5] = IPF patients, cited from earlier work
[6] = system: human primary cell-based systems (BioMAP); experiment: DiscoverX BioMAP Combo ELECT panel, relative protein expression; conditions: saracatinib 3.3 μM, relative to vehicle control
Description: BioMAP panels consist of human primary cell-based systems designed to model different aspects of the human body in an in vitro format. The 12 systems available in the Diversity PLUS panel allow test agent characterization in an unbiased way across a broad set of systems modelling various human disease states. BioMAP systems are constructed with one or more primary cell types from healthy human donors, with stimuli (such as cytokines or growth factors) added to capture relevant signalling networks that naturally occur in human tissue or pathological conditions. Systems recapitulate aspects of the systemic immune response including monocyte-driven Th1 inflammation (LPS system) or T cell stimulation (SAg system), chronic Th1 inflammation driven by macrophage activation (IMphg system) and the T cell-dependent activation of B cells that occurs in germinal centers (BT system). The BE3C system (Th1) and the BF4T system (Th2) represent airway inflammation of the lung, while the MyoF system models myofibroblast-lung tissue remodelling.
Each test agent generates a signature BioMAP profile that is created from the changes in protein biomarker readouts within individual system environments. Biomarker readouts (7-17 per system) are selected for therapeutic and biological relevance, are predictive for disease outcomes or specific drug effects and are validated using agents with known mechanism of action (MoA). Each readout is measured quantitatively by immune-based methods that detect protein (e.g., ELISA) or functional assays that measure proliferation and viability. BioMAP readouts are diverse and include cell surface receptors, cytokines, chemokines, matrix molecules and enzymes.
In the Combo ELECT panel, a 4×4 combination array is created to test all mixtures of two serially diluted single test agents/drugs.

[7] = target: Lyn (Homo sapiens, UniProt P07948); conditions: cited from earlier work
Sequence of Lyn (P07948 whole entry): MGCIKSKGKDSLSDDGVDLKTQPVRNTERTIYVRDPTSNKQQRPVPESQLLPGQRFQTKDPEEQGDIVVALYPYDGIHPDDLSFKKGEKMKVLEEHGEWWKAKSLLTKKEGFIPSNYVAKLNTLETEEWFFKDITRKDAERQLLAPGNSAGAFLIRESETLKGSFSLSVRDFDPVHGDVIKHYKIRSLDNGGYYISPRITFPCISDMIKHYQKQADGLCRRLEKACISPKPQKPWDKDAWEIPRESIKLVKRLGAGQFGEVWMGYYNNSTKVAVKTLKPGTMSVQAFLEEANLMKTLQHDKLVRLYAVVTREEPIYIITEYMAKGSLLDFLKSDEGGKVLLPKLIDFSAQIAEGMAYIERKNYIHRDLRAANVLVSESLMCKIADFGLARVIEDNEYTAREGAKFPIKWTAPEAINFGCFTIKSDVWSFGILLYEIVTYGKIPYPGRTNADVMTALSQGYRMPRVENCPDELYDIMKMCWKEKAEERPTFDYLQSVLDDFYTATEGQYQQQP

[8] = system: bleomycin (Bleo) induced lung injury and fibrosis; experiment: Bleomycin model, lung hydroxyproline levels; type: in vivo, mice; conditions: saracatinib 1, 3 or 10 mg/kg BID vs pirfenidone 200 mg/kg BID and nintedanib 30 mg/kg BID, from day 7, day 21
Procedure: Bleomycin Sulfate was obtained from Sigma-Aldrich. The IU conversion to enzyme units (U) is approximately 1.5-2 U/mg. For delivery of 4 U/kg in 50 μL, a solution of […] was prepared in 0.9% NaCl. Bleomycin or vehicle was dosed on Day 0 intranasally. […] Body weights and clinical observations were recorded on days 7, 14, and 21. On day 21, mice were euthanized by cervical dislocation. One side of lung tissue was dissected and analyzed for hydroxyproline levels as an indicator of local collagen deposition, and the other side lung was fixed in Formalin for histopathology (Quantitative staining with sirius red).

[9] = Saracatinib AD Phase IIa (52 weeks), safety and tolerability; type: in vivo, human; conditions: Alzheimer's Disease patients
[10] = Pharmacokinetics (PK) of saracatinib in the bleomycin model; type: in vivo; conditions: mouse, mice; for Cmax: Day 21, dosed 1 hour prior to terminal blood draw; for concentration at 21 day: Day 21, not dosed before blood draw, read-out: Cmin +/− SD
[11] = 24 h, read-out: Mean IC50 ACTA2 mRNA
[12] = 24 h, read-out: Mean IC50 COL1A1 mRNA
[13] = 24 h, read-out: Mean IC50 COL3A1 mRNA
[14] = 24 h, read-out: Mean IC50 FN1 mRNA
[15] = 24 h, read-out: Mean IC50 IL-6 protein
[16] = 100 mg or 125 mg per day, 52 weeks, n = 79

In the case of `COC(=O)c1ccc2c(c1)NC(=O)/C2=C(\Nc1ccc(N(C)C(=O)CN2CCN(C)CC2)cc1)c1ccccc1` [Nintedanib], the “organoid formation of airway basal cells (FIGS. 4, 5 and 6)” value (from here on “organoid formation of airway basal cells”) [1] is given as “little to no effect”, the “Treatment Discontinuations, clinical studies IPF” value [2] is given as 21% (15%) and the “Treatment Discontinuations, Real-World data” value [3] is given as 26.3%. The IC50 [4, 11] was 1750 nM, the IC50 [4, 12] was 536 nM and the IC50 [4, 13] was 725 nM. The IC50 [4, 14] was 624 nM, the IC50 [4, 15] was 311 nM and the IC50 ([4]; 24 h, read-out: Mean IC50 αSMA) was 601 nM. For the same molecule, the “cell viability / cell death” value [4] was “some evidence of cell death” and the “inhibition of αSMA (FIG. 2)” value [4] was “inhibited αSMA, but at supra-therapeutic concentrations”.
In the case of `Cc1ccc(=O)n(-c2ccccc2)c1` [Pirfenidone], the Anorexia ([5]; 52 weeks, n = 623) is given as 13%, the Diarrhea ([5]; 52 weeks, n = 623) is given as 24.6% and the Nausea ([5]; 52 weeks, n = 623) is given as 35.5%. For the same molecule, the Vomiting ([5]; 52 weeks, n = 623) was 12.7%, the “Weight Decrease” value ([5]; 52 weeks, n = 623) was 10% and the “Decreased Appetite” value ([5]; Pirfenidone Medical Review, pirfenidone n = 345) was 9%^3. For the same molecule, the “Treatment Discontinuations, clinical studies IPF” value [5] was 14.6% (9.6%), the “organoid formation of airway basal cells” value [1] was “little to no effect” and the “Treatment Discontinuations, Real-World data” value [3] was 20.9%. For the same molecule, the IC50 ([4]; TGFβ-stimulated NHLF, healthy donor 197 (n = 3), 24 hours, read-out: Mean IC50 ACTA2 mRNA) was over 10000 nM, the IC50 ([4]; TGFβ-stimulated NHLF, healthy donor 197 (n = 3), 24 hours, read-out: Mean IC50 COL1A1 mRNA) was over 10000 nM and the IC50 ([4]; TGFβ-stimulated NHLF, healthy donor 197 (n = 3), 24 hours, read-out: Mean IC50 COL3A1 mRNA) was over 10000 nM. For the same molecule, the IC50 ([4]; TGFβ-stimulated NHLF, healthy donor 197 (n = 3), 24 hours, read-out: Mean IC50 FN1 mRNA) was over 10000 nM, the IC50 ([4]; TGFβ-stimulated NHLF, healthy donor 197 (n = 3), 24 hours, read-out: Mean IC50 IL-6 protein) was over 10000 nM and the IC50 ([4]; TGFβ-stimulated NHLF, healthy donor 197 (n = 3), 24 hours, read-out: Mean IC50 αSMA) was over 10000 nM. The “cell viability / cell death” value [4] was “some evidence of cell death” and the “inhibition of αSMA (FIG. 2)” value [4] was “inhibited αSMA, but at supra-therapeutic concentrations”.
With `CN1CCN(CCOc2cc(OC3CCOCC3)c3c(Nc4c(Cl)ccc5c4OCO5)ncnc3c2)CC1` [Saracatinib, N-(5-chlorobenzo[d][1,3]dioxol-4-yl)-7-(2-(4-methylpiperazin-1-yl)ethoxy)-5-((tetrahydro-2H-pyran-4-yl)oxy)quinazolin-4-amine] the “expression of MMP-9 (FIG. 7)” value [6] was “decreased expression”, the “expression of N-cadherin (FIG. 7)” value [6] was “decreased expression” and the “expression of TIMP-1 (FIG. 7)” value [6] was “decreased expression”. The “expression of VCAM-1 (FIG. 7)” value [6] was “increased expression”, the “expression of a-SMA (FIG. 7)” value [6] was “increased expression” and the “expression of sIL-6 (FIG. 7)” value [6] was “decreased expression”. The “expression of sIL-8 (FIG. 7)” value [6] was “decreased expression”, the “expression of sVEGF (FIG. 7)” value [6] was “decreased expression” and the IC50 [7] was 5 nM. The “hydroxyproline levels after bleomycin induced lung injury and fibrosis (FIG. 1)” value [8] was “compares favourably to pirfenidone (at much lower doses) and is potentially superior to nintedanib at clinically relevant doses”, the cytotoxicity ([1]; ABC organoids, saracatinib 8 to 600 nM) was “non-cytotoxic” and the “organoid formation of airway basal cells” value [1] was “differentiated and uniquely efficacious”. For the same molecule, the “Treatment Discontinuations, clinical studies AD” value [9] was 8.2% (1.2%), the Anorexia [9, 16] was 3% and the “Decreased Appetite” value [9, 16] was 9%. For the same molecule, the Diarrhea [9, 16] was 27.8%, the Nausea [9, 16] was 12.7% and the Vomiting [9, 16] was 5.1%. For the same molecule, the “Weight Decrease” value [9, 16] was 10%, the Cmax ([10]; 1 mg/kg BID oral gavage) was 71.5 nM and the concentration at 21 day ([10]; 1 mg/kg BID oral gavage) was 2.52 nM. The Cmax ([10]; 3 mg/kg BID oral gavage) was 139 nM, the concentration at 21 day ([10]; 3 mg/kg BID oral gavage) was 8.41 nM and the Cmax ([10]; 10 mg/kg BID oral gavage) was 390 nM. For the same molecule, the concentration at 21 day ([10]; 10 mg/kg BID oral gavage) was 31.8 nM, the IC50 [4, 11] was 186 nM and the IC50 [4, 12] was 1010 nM. The IC50 [4, 13] was 7990 nM, the IC50 [4, 14] was 526 nM and the IC50 [4, 15] was 128 nM. For the same molecule, the IC50 ([4]; 24 h, read-out: Mean IC50 αSMA) was 185 nM, the “cell viability / cell death” value [4] was “without impacting cell viability” and the “inhibition of αSMA (FIG. 2)” value [4] was “dose-dependent inhibition of αSMA”.
